Test results taken from US12661410B2, “Compounds for targeted degradation of RET” (C4 Therapeutics, Inc., priority 2020, dated 2026).
Numbering of substitutions follows the chain as printed. Read-outs that look alike come from different tables or passages of the source.

Key:
RET (658-1114) = biological target: T1, RET (658-1114) (Homo sapiens, UniProt P07949); assay: HiBiT-Degradation, RET wild-type degradation assay (Nano-Glo HiBiT Lytic), 293T.144 cells; type: cell-based; details: for DC50 / Emax: 6.0 hours
T1 construct: 658-1114; expressed in transfected cells; host or cells: 293T.144 (293T cells, generated in-house)
T1 sequence (P07949 658-1114): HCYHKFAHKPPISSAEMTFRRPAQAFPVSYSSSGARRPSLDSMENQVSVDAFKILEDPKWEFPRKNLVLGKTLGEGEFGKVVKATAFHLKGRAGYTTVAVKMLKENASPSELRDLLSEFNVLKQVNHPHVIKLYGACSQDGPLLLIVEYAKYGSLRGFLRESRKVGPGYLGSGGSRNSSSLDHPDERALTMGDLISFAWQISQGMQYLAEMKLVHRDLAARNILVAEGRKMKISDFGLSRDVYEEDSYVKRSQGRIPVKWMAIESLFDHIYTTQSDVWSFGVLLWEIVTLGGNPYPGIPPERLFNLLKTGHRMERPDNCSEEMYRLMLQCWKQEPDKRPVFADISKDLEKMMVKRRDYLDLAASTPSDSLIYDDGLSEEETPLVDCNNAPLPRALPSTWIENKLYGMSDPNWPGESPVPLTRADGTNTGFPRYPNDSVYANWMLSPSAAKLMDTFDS
Description: (§1) Dulbecco's modified Eagle medium (DMEM) no-phenol red media and fetal bovine serum (FBS) were purchased from Gibco (Grand Island, NY, USA). Cell lines ectopically expressing wild-type or G810R RET kinase domain fused with a HiBiT tag were generated in-house (293T. 144 and 293T. 165, respectively). Cell culture flasks and 384-well microplates were acquired from VWR (Radnor, PA, USA). The Nano-Glo® HiBiT Lytic Assay System was purchased from Promega (Madison, WI, USA).
(§2) RET wild-type (WT) and G810R degradation were assessed using the Nano-Glo® HiBiT Lytic assay (Promega, Medison, WI, USA). To determine the effect of degraders on protein levels, cells were plated in 384-well plates and treated with compounds of interest in duplicates for 6 hours using an 11-point half-log dilution series, with the highest dose set at 10 μM. Cell lysis and addition of the Nano-Glo® HiBiT Lytic Assay reagents was then performed. Luminescence signal was measured using an EnVision™ Multimode plate reader (Perkin Elmer, Santa Clara, CA, USA). The half-maximal degradation concentration (DC50) and % remaining protein (Emax) was then derived from the dose-response curves.

RET(KD: 658-1114 G810R) = biological target: T2, RET(KD: 658-1114 G810R) (Homo sapiens, UniProt P07949, G810R); assay: HiBiT-Degradation, RET G810R degradation assay (Nano-Glo HiBiT Lytic), 293T.165 cells; type: cell-based; details: for Emax / DC50: 6.0 hours
T2 construct: 658-1114; expressed in transfected cells; host or cells: 293T.165 (293T cells, generated in-house)
T2 sequence (P07949 658-1114 G810R): T1 sequence (P07949 658-1114) with G153R
Description: as §1, §2

[1] = HiBiT-Degradation, read-out: 293T.144 RET (658-1114) 6.0 hours (DC50)
[2] = HiBiT-Degradation, read-out: 293T.144 RET (658-1114) 6.0 hours (Emax)
[3] = % remaining protein, read-out: 293T.165 RET(KD: 658-1114 G810R) 6.0 hours (Emax)
[4] = half-maximal degradation concentration, read-out: 293T.165 RET(KD: 658-1114 G810R) 6.0 hours (DC50)
[5] = HiBiT-Degradation, read-out: 293T.165 RET(KD: 658-1114 G810R) 6.0 hours (DC50)

SMILES: CCC1(C(=O)NC(C)C)CCN(c2ccc(-c3cc(-c4ccc(N5CCN(C(=O)CN6CCC(c7ccc8c(N9CCC(=O)NC9=O)nn(C)c8c7)CC6)CC5)cc4)cn4ncc(C#N)c34)cn2)CC1 [Compound 64, 1-[5-[3-cyano-6-[4-[4-[2-[4-[3-(2,4-dioxohexahydropyrimidin-1-yl)-1-methyl-indazol-6-yl]-1-piperidyl]acetyl]piperazin-1-yl]phenyl]pyrazolo[1,5-a]pyridin-4-yl]-2-pyridyl]-4-ethyl-N-isopropyl-piperidine-4-carboxamide]
- 293T.144 RET (658-1114) 6.0 hours (IP) [nM] (RET (658-1114); HiBiT-Degradation): ++++ (< 50 nM = ++++)
- DC50 (RET (658-1114); [1]): < 50 nM
- Emax (RET (658-1114); [2]): < 30%
- Emax (RET(KD: 658-1114 G810R); [3]): < 30%
- DC50 (RET(KD: 658-1114 G810R); [4]): < 100 nM
- 293T.165 RET(KD: 658-1114 G810R) 6.0 hours (Emax) (RET(KD: 658-1114 G810R); HiBiT-Degradation): ++++ (< 30% = ++++)
- 293T.165 RET(KD: 658-1114 G810R) 6.0 hours (IP) [nM] (RET(KD: 658-1114 G810R); HiBiT-Degradation): ++++ (< 50 nM = ++++)
- DC50 (RET(KD: 658-1114 G810R); [5]): < 100 nM

SMILES: CCC1(C(=O)NC(C)C)CCN(c2ccc(-c3cc(-c4cnn(C5CCN(C(=O)CN6CCN(c7ccc(NC8CCC(=O)NC8=O)cc7F)CC6)CC5)c4)cn4ncc(C#N)c34)cn2)CC1 (centres unmarked) [Compound 66, 1-[5-[3-cyano-6-[1-[1-[2-[4-[4-[(2,6-dioxo-3-piperidyl)amino]-2-fluoro-phenyl]piperazin-1-yl]acetyl]-4-piperidyl]pyrazol-4-yl]pyrazolo[1,5-a]pyridin-4-yl]-2-pyridyl]-4-ethyl-N-isopropyl-piperidine-4-carboxamide]
- 293T.144 RET (658-1114) 6.0 hours (IP) [nM] (RET (658-1114); HiBiT-Degradation): ++++ (< 50 nM = ++++)
- DC50 (RET (658-1114); [1]): < 50 nM
- Emax (RET (658-1114); [2]): < 30%
- Emax (RET(KD: 658-1114 G810R); [3]): < 30%
- DC50 (RET(KD: 658-1114 G810R); [4]): < 50 nM
- 293T.165 RET(KD: 658-1114 G810R) 6.0 hours (Emax) (RET(KD: 658-1114 G810R); HiBiT-Degradation): ++++ (< 30% = ++++)
- 293T.165 RET(KD: 658-1114 G810R) 6.0 hours (IP) [nM] (RET(KD: 658-1114 G810R); HiBiT-Degradation): ++++ (< 50 nM = ++++)
- DC50 (RET(KD: 658-1114 G810R); [5]): < 50 nM

SMILES: CC(C)(C)NC(=O)C1(C)CCN(c2ccc(-c3cc(-c4ccc(N5CCN(C(=O)CN6CCC(c7ccc(NC8CCC(=O)NC8=O)cc7F)CC6)CC5)cc4)cn4ncc(C#N)c34)cn2)CC1 (centres unmarked) [Compound 25, N-(tert-butyl)-1-(5-(3-cyano-6-(4-(4-(2-(4-(4-((2,6-dioxopiperidin-3-yl)amino)-2-fluorophenyl)piperidin-1-yl)acetyl)piperazin-1-yl)phenyl)pyrazolo[1,5-a]pyridin-4-yl)pyridin-2-yl)-4-methylpiperidine-4-carboxamide]
- 293T.144 RET (658-1114) 6.0 hours (IP) [nM] (RET (658-1114); HiBiT-Degradation): ++++ (< 50 nM = ++++)
- DC50 (RET (658-1114); [1]): < 50 nM
- Emax (RET (658-1114); [2]): < 30%
- Emax (RET(KD: 658-1114 G810R); [3]): < 50%
- DC50 (RET(KD: 658-1114 G810R); [4]): < 100 nM
- 293T.165 RET(KD: 658-1114 G810R) 6.0 hours (Emax) (RET(KD: 658-1114 G810R); HiBiT-Degradation): +++ (<50% = +++)
- 293T.165 RET(KD: 658-1114 G810R) 6.0 hours (IP) [nM] (RET(KD: 658-1114 G810R); HiBiT-Degradation): ++++ (< 50 nM = ++++)
- DC50 (RET(KD: 658-1114 G810R); [5]): < 100 nM

SMILES: N#Cc1cnn2cc(-c3cnn(C4CCN(C(=O)CC5(O)CCN(c6ccc(NC7CCC(=O)NC7=O)cc6F)CC5)CC4)c3)nc(-c3ccc(N4CCC5(CC4)OCc4cccnc45)nc3)c12 (centres unmarked) [Compound 113, 6-[1-[1-[2-[1-[4-[(2,6-dioxo-3-piperidyl)amino]-2-fluoro-phenyl]-4-hydroxy-4-piperidyl]acetyl]-4-piperidyl]pyrazol-4-yl]-4-(6-spiro[5H-furo[3,4-b]pyridine-7,4′-piperidine]-1′-yl-3-pyridyl)pyrazolo[1,5-a]pyrazine-3-carbonitrile]
- 293T.144 RET (658-1114) 6.0 hours (IP) [nM] (RET (658-1114)): ++++ (<50 nM = ++++)
- Emax (RET (658-1114); % remaining protein, read-out: 293T.144 RET (658-1114) 6.0 hours (Emax)): < 30%
- DC50 (RET (658-1114); half-maximal degradation concentration, read-out: 293T.144 RET (658-1114) 6.0 hours (DC50)): < 50 nM
- 293T.165 RET(KD: 658-1114 G810R) 6.0 hours (IP) [nM] (RET(KD: 658-1114 G810R)): ++++ (<50 nM = ++++)
- Emax (RET(KD: 658-1114 G810R); [3]): < 30%
- DC50 (RET(KD: 658-1114 G810R); [4]): < 50 nM

SMILES: CCC1(C(=O)NC(C)C)CCN(c2ccc(-c3nc(-c4cnn(C5CCN(C(=O)CC6(O)CCN(c7ccc(N[C@H]8CCC(=O)NC8=O)cc7F)CC6)CC5)c4)cn4ncc(C#N)c34)cn2)CC1 (single isomer, unassigned) [Compound 80]
- HiBiT-Degradation 293T.144 RET (658-1114) 6.0 hours (IP) [nM] (RET (658-1114); RET wild-type): ++++ (< 50 nM = ++++)
- DC50 (RET (658-1114); RET wild-type, read-out: HiBiT-Degradation 293T.144 RET (658-1114) 6.0 hours (DC50)): < 50 nM
- Emax (RET (658-1114); RET wild-type, read-out: HiBiT-Degradation 293T.144 RET (658-1114) 6.0 hours (Emax)): < 30%
- Emax (RET(KD: 658-1114 G810R); [3]): < 50%
- DC50 (RET(KD: 658-1114 G810R); [4]): < 50 nM
- HiBiT-Degradation 293T.165 RET(KD: 658-1114 G810R) 6.0 hours (IP) [nM] (RET(KD: 658-1114 G810R); RET G810R): ++++ (< 50 nM = ++++)
- DC50 (RET(KD: 658-1114 G810R); RET G810R, read-out: HiBiT-Degradation 293T.165 RET(KD: 658-1114 G810R) 6.0 hours (DC50)): < 50 nM
- Emax (RET(KD: 658-1114 G810R); RET G810R, read-out: HiBiT-Degradation 293T.165 RET(KD: 658-1114 G810R) 6.0 hours (Emax)): < 50%
